# Source: US20150320776A1, “METHOD OF INHIBITING HELICOBACTER PYLORI” (priority 2014, published 2015)
# Where two headings read alike, the source gives them in different places.
# What was measured:
# Helicobacter pylori J99 = experiment: Paper disc diffusion test, inhibition zone on agar plate; assay type: cell-based; details: blank disc 8 mm; for zone of inhibition at 4 mg/disc / zone of inhibition at 1 mg/disc: Helicobacter pylori, J99, read-out: inhibition growth diameter; for inhibition zone diameter (FIG. 5): amount per disc not given
# Description: Helicobacter pylori J99 (HP J99) used in the embodiments of the present invention was purchased from Bioresource Collection and Research Center (BCRC). The cultivating condition is indicated as follows: the bacteria were inoculated onto CDC medium (CDC anaerobe 5% blood agar, BD) and then incubated at 37° C. for 48 to 72 hours. After incubation, the bacteria were further incubated under micro-aerobic condition (5% O2, 10% CO2, 85% N2). For preparation of solutions with the foregoing compound A or compound B, ethanol was used as solvent to prepare various suitable concentrations.
# The test on the inhibitory effect of Helicobacter pylori with the compound A or compound B of the present invention was carried out as follows: Helicobacter pylori was first grown on a CDC agar plate containing sheep blood for 48 to 72 hours. The bacterial colony was scraped with a cotton swab or an inoculation loop and subsequently transferred into a normal saline solution (0.9% NaCl). The optical density was then adjusted to 2 Mcfarland (1-4×10^8/ml bacteria) to obtain a solution with Helicobacter pylori. Subsequently, the foregoing compound A or compound B was weighed out to prepare a series of concentrations (from 10 mg/ml to 100 mg/ml) of test solutions (40 μl) and then 40 μl of the solution were transferred onto blank paper discs. After dryness, the discs were separately stuck to a proper site on the agar plate. After incubation under micro-aerobic condition at 37° C. for 48 hours, observation was made if any inhibition zone emerged on the agar plate.
# The compounds of the present invention, which were actually tested, included phenoxyacetic acid, 3,4-dihydrobenzoic acid, 3,5-diamino-benzoic acid, 4-aminophenylacetic acid, 4-nitrobenzoic acid, 2,4-dinitrobenzoic acid, 4-(dimethylamino)benzoic acid, 2-methoxyphenylacetic acid, 3-amino-4-methylbenzoic acid, 4-methylthiobenzoic acid, 4-bromphenylacetic acid, 1,4-cyclohexanedicarboxylic acid, phthalic acid, trans-cinnamic acid, 4-ethylbenzoic acid, phenylacetic acid, benzoic acid, 3-phenylpropionic acid, 4-phenylbutyric acid, 3,4-dimethoxybenzyl alcohol (1) and 4-indophenylboronic acid (2). Ethanol (3) and water (4) were used as control.
# susceptible H. pylori = details: cited from earlier work; for increase of MIC90: ratio of pH 5.5 to 7.0
# H. pylori J99 [1] = experiment: Minimum inhibition concentration with different pH values; assay type: cell-based, Helicobacter pylori; details: for MIC90: Helicobacter pylori; for MIC: pH 6.0 to pH 7.0, no change observed
# H. pylori J99 [2] = experiment: Minimal bactericidal concentration (MBC); assay type: cell-based; details: Helicobacter pylori, kills 99.9% of bacteria of control group, 37° C., 1 to 2 hours
# Description: Minimal bactericidal concentration (MBC) was determined by incubating test bacteria with different doses of test compounds for a period of time. Subsequently, the solutions underwent serial dilutions and the bacteria were grown on the agar plate by plate coating. At this moment, the concentration of test compound lost its inhibitory ability because of being diluted via serial dilutions and plate coating and it could be seen from the clear bacterial solution if the bacteria were dead. If bacteria growth was inhibited by the concentration of test compound, the bacteria might continue to grow after the abovementioned treatment and appeared in the form of colonies. In an embodiment of the present invention, H. pylori J99 were pre-cultivated for two days and colonies were scraped and suspended in saline solution. The bacterial concentration was then adjusted to 2 McFarland. After addition of suitable concentrations of benzoic acid and phenylacetic acid and incubation at 37° C. for 1 to 2 hours, the bacterial suspension underwent serial dilutions. 100 μl aliquots were taken from each suspension and applied on CDC plates. The plates were incubated under micro-aerobic condition at 37° C. for two days. The number of bacterial colonies was noted down and the concentration of test compound, that is able to kill 99.9% of bacteria of control group, was used as minimal bactericidal concentration.
molecule,measurement,setting,value
"O=C(O)C1CCC(C(=O)O)CC1 (stereo not drawn) [1,4-cyclohexanedicarboxylic acid]",zone of inhibition at 4 mg/disc,Helicobacter pylori J99; 4 mg/disc,12 mm
"O=C(O)c1ccc([N+](=O)[O-])cc1[N+](=O)[O-] [2,4-dinitrobenzoic acid]",inhibition growth diameter,Helicobacter pylori J99; 4 mg/disc,33 mm
COc1ccccc1CC(=O)O [2-methoxyphenylacetic acid],zone of inhibition at 4 mg/disc,Helicobacter pylori J99; 4 mg/disc,16 mm
"COc1ccc(CO)cc1OC [3,4-dimethoxybenzyl alcohol]",zone of inhibition at 4 mg/disc,Helicobacter pylori J99; 4 mg/disc,20 mm
same,inhibition zone diameter (FIG. 5),Helicobacter pylori J99,20 mm
"Nc1cc(N)cc(C(=O)O)c1 [3,5-diaminobenzoic acid]",zone of inhibition at 4 mg/disc,Helicobacter pylori J99; 4 mg/disc,12 mm
Cc1ccc(C(=O)O)cc1N [3-amino-4-methylbenzoic acid],zone of inhibition at 4 mg/disc,Helicobacter pylori J99; 4 mg/disc,14 mm
O=C(O)CCc1ccccc1 [3-phenylpropionic acid],zone of inhibition at 1 mg/disc,Helicobacter pylori J99; 1 mg/disc,14 mm
same,zone of inhibition at 4 mg/disc,Helicobacter pylori J99; 4 mg/disc,34 mm
CN(C)c1ccc(C(=O)O)cc1 [4-(dimethylamino)benzoic acid],zone of inhibition at 4 mg/disc,Helicobacter pylori J99; 4 mg/disc,26 mm
Nc1ccc(CC(=O)O)cc1 [4-aminophenylacetic acid],zone of inhibition at 4 mg/disc,Helicobacter pylori J99; 4 mg/disc,12 mm
O=C(O)Cc1ccc(Br)cc1 [4-bromphenylacetic acid],inhibition growth diameter,Helicobacter pylori J99; 1 mg/disc,16 mm
same,inhibition growth diameter,Helicobacter pylori J99; 4 mg/disc,35 mm
CCc1ccc(C(=O)O)cc1 [4-ethylbenzoic acid],zone of inhibition at 1 mg/disc,Helicobacter pylori J99; 1 mg/disc,30 mm
OB(O)c1ccc(I)cc1 [4-indophenylboronic acid],inhibition growth diameter,Helicobacter pylori J99; 1 mg/disc,35 mm
same,inhibition zone diameter (FIG. 5),Helicobacter pylori J99,35 mm
Cc1ccc(C(O)=S)cc1 [4-methylthiobenzoic acid],zone of inhibition at 1 mg/disc,Helicobacter pylori J99; 1 mg/disc,18 mm
same,zone of inhibition at 4 mg/disc,Helicobacter pylori J99; 4 mg/disc,40 mm
O=C(O)c1ccc([N+](=O)[O-])cc1 [4-nitrobenzoic acid],zone of inhibition at 1 mg/disc,Helicobacter pylori J99; 1 mg/disc,70 mm
O=C(O)CCCc1ccccc1 [4-phenylbutyric acid],zone of inhibition at 4 mg/disc,Helicobacter pylori J99; 4 mg/disc,28 mm
CC1(C)S[C@@H]2[C@H](NC(=O)[C@H](N)c3ccccc3)C(=O)N2[C@H]1C(=O)O [Ampicillin],MIC90,susceptible H. pylori; pH 5.5,0.5 µg/mL
same,MIC90,susceptible H. pylori; pH 6.0,0.25 µg/mL
same,MIC90,susceptible H. pylori; pH 7.5,0.06 µg/mL
O=C(O)c1ccccc1 [Benzoic acid],MIC90,"H. pylori J99 [1]; J99, pH 6",0.06 µg/mL
same,MIC90,"H. pylori J99 [1]; J99, pH 6.5",0.06 µg/mL
same,MIC90,"H. pylori J99 [1]; J99, pH 7",0.06 µg/mL
same,MIC,H. pylori J99 [1],0.06
same,MBC,H. pylori J99 [2],500 µg/mL
same,zone of inhibition at 4 mg/disc,Helicobacter pylori J99; 4 mg/disc,24 mm
O=C([O-])CC(O)(CC(=O)[O-])C(=O)[O-].O=C([O-])CC(O)(CC(=O)[O-])C(=O)[O-].[Bi+3].[K+].[K+].[K+] [Bismuth subcitrate],MIC90,susceptible H. pylori; pH 6.0,8 µg/mL
same,MIC90,susceptible H. pylori; pH 7.5,16 µg/mL
CC1=C(C(=O)O)N2C(=O)[C@@H](NC(=O)[C@H](N)c3ccccc3)[C@H]2SC1 [Cefalexin],MIC90,susceptible H. pylori; pH 5.5,32 µg/mL
same,MIC90,susceptible H. pylori; pH 6.0,16 µg/mL
same,MIC90,susceptible H. pylori; pH 7.5,2 µg/mL
O=C(O)c1cn(C2CC2)c2cc(N3CCNCC3)c(F)cc2c1=O [Ciprofloxacin],MIC90,susceptible H. pylori; pH 5.5,2 µg/mL
same,MIC90,susceptible H. pylori; pH 6.0,0.5 µg/mL
same,MIC90,susceptible H. pylori; pH 7.5,0.12 µg/mL
CC[C@H]1OC(=O)[C@H](C)[C@@H](O[C@H]2C[C@@](C)(OC)[C@@H](O)[C@H](C)O2)[C@H](C)[C@@H](O[C@@H]2O[C@H](C)C[C@H](N(C)C)[C@H]2O)[C@](C)(OC)C[C@@H](C)C(=O)[C@H](C)[C@@H](O)[C@]1(C)O [Clarithromycin],MIC90,susceptible H. pylori; pH 5.5,0.25 µg/mL
same,MIC90,susceptible H. pylori; pH 6.0,0.06 µg/mL
same,MIC90,susceptible H. pylori; pH 7.5,0.03 µg/mL
same,increase of MIC90,susceptible H. pylori,eight
CC[C@H]1OC(=O)[C@H](C)[C@@H](O[C@H]2C[C@@](C)(OC)[C@@H](O)[C@H](C)O2)[C@H](C)[C@@H](O[C@@H]2O[C@H](C)C[C@H](N(C)C)[C@H]2O)[C@](C)(O)C[C@@H](C)C(=O)[C@H](C)[C@@H](O)[C@]1(C)O [Erythromycin],MIC90,susceptible H. pylori; pH 5.5,8 µg/mL
same,MIC90,susceptible H. pylori; pH 6.0,2 µg/mL
same,MIC90,susceptible H. pylori; pH 7.5,0.06 µg/mL
Cc1ncc([N+](=O)[O-])n1CCO [Metronidazole],MIC90,susceptible H. pylori; pH 5.5,2 µg/mL
same,MIC90,susceptible H. pylori; pH 6.0,2 µg/mL
same,MIC90,susceptible H. pylori; pH 7.5,2 µg/mL
O=C(O)COc1ccccc1 [Phenoxyacetic acid],zone of inhibition at 4 mg/disc,Helicobacter pylori J99; 4 mg/disc,17 mm
O=C(O)Cc1ccccc1 [Phenylacetic acid],MIC90,"H. pylori J99 [1]; J99, pH 6.5, read-out: MIC90",0.125 µg/mL
same,MIC90,"H. pylori J99 [1]; J99, pH 7",0.125 µg/mL
same,MIC90,"H. pylori J99 [1]; J99, pH 6.0, read-out: MIC90",0.125 µg/mL
same,MIC,H. pylori J99 [1],0.125
same,MBC,H. pylori J99 [2],1000 µg/mL
same,zone of inhibition at 4 mg/disc,Helicobacter pylori J99; 4 mg/disc,22 mm
O=C(O)/C=C/c1ccccc1 [Trans-cinnamic acid],zone of inhibition at 1 mg/disc,Helicobacter pylori J99; 1 mg/disc,25 mm
CC1(C)S[C@@H]2[C@H](NC(=O)[C@H](N)c3ccc(O)cc3)C(=O)N2[C@H]1C(=O)O [amoxicillin],increase of MIC90,susceptible H. pylori,eight
O=C(O)c1ccccc1C(=O)O [phthalic acid],zone of inhibition at 4 mg/disc,Helicobacter pylori J99; 4 mg/disc,12 mm
Penicillin,MIC90,susceptible H. pylori; pH 5.5,0.5 µg/mL
same,MIC90,susceptible H. pylori; pH 6.0,0.5 µg/mL
same,MIC90,susceptible H. pylori; pH 7.5,0.03 µg/mL
